From US20240050580A1, “COMPOSITIONS TARGETING TUMOR ASSOCIATED MACROPHAGES AND METHODS USING SAME” (Rutgers, The State University of New Jersey, priority 2020, published 2024)
Bridge positions count the residues as written; N and C are the ends. Ends that are not written are not given here.

How the values were obtained:
[1] = test system: CD11b+F4/80+ TAM from EF43.fgf4 mammary tumors; assay: Cytokine gene expression by quantitative real-time PCR in cultured TAM; format: cell-based, mouse
Method: Three sets of total RNA (RNeasy Mini Kit, Qiagen) were independently isolated from cultured macrophages, or fresh macrophages isolated directly from tumors. DNA synthesis was performed with the […] Reverse Transcription System (Promega) by using oligodT for reverse transcription. Gene expression was analyzed with the use of Tagman probes (Applied Biosystems) in a 7500 Fast Real-Time PCR System instrument (Applied Biosystems) and three sets of endogenous control genes: 18S and GAPDH and GUSB1. TAM were obtained directly from EF43.fgf4 tumors. Tissue digestion was performed in collagenase A in serum-free DMEM (1 mg/mL) for 20 minutes at 37° C., followed by filtering through 70 μm nylon cell strainers and centrifugation. Macrophages were enriched by magnetic bead separation of CD11b-positive cells (Miltenyi Biotec) and either used for RNA extraction or cultured in 6-well plates containing DMEM (Gibco) supplemented with 20% FBS (Sigma) and 50 ng/ml of M-CSF (R&D Systems). A homogeneous population of adherent macrophages (namely, >99% CD11b+F480+) was obtained after 7 days in culture.

EF43.fgf4 tumors = assay: Systemic treatment of EF43.fgf4 tumor-bearing mice with soluble peptide; format: in vivo, mouse
EF43.fgf4 cells = assay: Phage/peptide binding to cultured EF43.fgf4 cells (BRASIL cell binding assay); format: cell-based, mouse; conditions: standard cell binding assay, phage-displayed peptide
Method: (§1) The Biopanning and Rapid Analysis of Selective Interactive Ligands (BRASIL) methodology was used to test binding of phage to cultured cells. For phage binding to the candidate receptors PDIA3 and DBP, individual microtiter wells of 96-well plates were coated overnight (ON) with 1 μg/ml of recombinant proteins, followed by blocking with BSA and incubation with 10^9 TU of insertless phage or […]-phage for 1 hour at room temperature (RT). GST and BSA were used as control proteins. Bound phage were recovered by log-phase infection of host bacteria (200 μl E. coli K91Kan).

[2] = test system: EF43.fgf4-derived mammary fat pad tumors; assay: In vivo phage display library selection in EF43.fgf4 tumor-bearing mice; parameters: species or system mouse; conditions: peptide sequences from third round of in vivo selection
Method: Combinatorial phage display selections in vivo in tumor-bearing mice were performed as described in the literature. In brief, animals received 10^9 TU iv of an unselected phage display random peptide library (displaying the insert CX7C). Tumors and control organs were collected after 24 hours of systemic circulation. For homing of individual phage clones in vivo, tumor-bearing mice were deeply anesthetized with 1-2% isoflurane and received 10^9 TU of targeted phage or insertless control phage, both administered iv side-by-side. Phage particles were recovered from tissue samples by bacterial infection and processed as described in the literature.
A phage display-based approach was used to identify homing peptides that target TAM in TNBC. […] A random phage peptide library was first administered intravenously (iv) in immunocompetent female BALB/c mice with established EF43.fgf4-derived mammary fat pad tumors. Phage particles were recovered from tumors after 24 hours, re-amplified, and subjected to two additional rounds of in vivo selection. […] The four selected peptides were next individually evaluated based on absence of binding to EF43.fgf4 cells in vitro (FIG. 2B). […] In a non-limiting aspect, the peptides […], (SEQ ID NO:3) […] (SEQ ID NO:4), and […] (SEQ ID NO:2) were not studied further.

DBP = target: T1, DBP (Homo sapiens, UniProt P02774); assay: Competitive binding of […]-phage and vitamin D forms to DBP; conditions: wells pre-incubated with 3 nM or 30 nM competitor; P<0.05
T1 construct: GST; purchased Abcam
T1 sequence (P02774 17-474): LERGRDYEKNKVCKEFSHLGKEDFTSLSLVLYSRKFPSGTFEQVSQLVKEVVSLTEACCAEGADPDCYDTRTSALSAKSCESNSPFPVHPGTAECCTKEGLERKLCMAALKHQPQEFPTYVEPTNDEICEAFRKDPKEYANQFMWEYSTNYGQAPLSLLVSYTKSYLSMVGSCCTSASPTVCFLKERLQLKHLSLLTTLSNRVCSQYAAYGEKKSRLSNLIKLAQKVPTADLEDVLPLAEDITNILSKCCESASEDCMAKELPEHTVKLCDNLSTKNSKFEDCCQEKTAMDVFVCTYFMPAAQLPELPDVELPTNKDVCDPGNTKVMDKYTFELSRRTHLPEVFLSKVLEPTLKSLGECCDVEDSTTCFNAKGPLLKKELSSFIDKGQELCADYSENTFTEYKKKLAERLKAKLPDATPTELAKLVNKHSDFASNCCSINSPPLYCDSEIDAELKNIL
Method: as §1

[3] = target: T2, PDIA3 on the surface of tumor associated macrophages (TAM) from EF43.fgf4 mammary tumors (mouse, UniProt P27773 25-505); assay: cell-based or functional assay
T2 sequence (looked up): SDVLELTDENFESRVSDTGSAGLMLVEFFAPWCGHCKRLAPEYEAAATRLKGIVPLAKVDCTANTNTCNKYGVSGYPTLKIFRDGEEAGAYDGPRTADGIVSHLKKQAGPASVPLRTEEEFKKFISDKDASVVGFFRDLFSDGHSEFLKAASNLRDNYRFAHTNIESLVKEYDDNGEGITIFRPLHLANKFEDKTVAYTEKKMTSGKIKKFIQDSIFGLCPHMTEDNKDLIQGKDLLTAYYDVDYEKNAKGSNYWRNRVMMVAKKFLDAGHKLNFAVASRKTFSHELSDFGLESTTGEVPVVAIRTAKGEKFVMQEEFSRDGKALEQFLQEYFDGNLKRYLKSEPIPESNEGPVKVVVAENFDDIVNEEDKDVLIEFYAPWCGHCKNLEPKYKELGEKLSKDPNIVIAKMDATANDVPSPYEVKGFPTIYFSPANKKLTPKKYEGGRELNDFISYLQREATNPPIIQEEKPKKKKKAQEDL

[4] = target: T3, recombinant human vitamin D-binding protein (DBP) (human, UniProt P02774 17-474, limits assumed); assay: phage binding assay on coated recombinant protein, bound phage counted as TU
T3 construct: Bought from Abcam and coated at 1 ug/ml on microtiter wells; also called recombinant human DBP; DBP-GST
T3 sequence (looked up): T1 sequence (P02774 17-474)
Method: The Biopanning and Rapid Analysis of Selective Interactive Ligands (BRASIL) methodology was used to test binding of phage to cultured cells. […] GST and BSA were used as control proteins. Bound phage were recovered by log-phase infection of host bacteria (200 μl E. coli K91Kan).

“CSSTRESAC (disulfide 1-9) [TAM targeting peptide from CX7C phage library; modeled with disulfide bridge between Cys1 and Cys9]” was tested, and the “gene expression of IL-4 and IL-13” value [1] was “undetectable”, the “gene expression of IL-18, IL-12, and INFβ” value ([1]; relative to control cells) was “modest increases or were detected only at background levels” and the “gene expression of anti-inflammatory cytokines TGF-β1, TGF-β2, IL-10, and arginase-1” value ([1]; relative to control cells) was “much lower increases”. The tumor growth (EF43.fgf4 tumors; iv, vs unrelated control peptide or vehicle, from one week post initiation, P<0.001) was “significant delay in tumor growth”, the “macrophage population in tumor sections (immunohistochemistry, CD163)” value (EF43.fgf4 tumors; vs control peptide) was “reduction of the macrophage population” and the “number of CD11b+IL10highIL12low PDIA3-expressing TAM in tumors (FACS)” value (EF43.fgf4 tumors; vs negative control groups) was “reduction in the number”. For the same molecule, the “binding to EF43.fgf4 cells in vitro” value (EF43.fgf4 cells) was “did not” and the “enrichment relative to each of the other three selected peptides” value [2] was 16 fold.

“CQRALMIAC (TAM Targeting Peptide) [TAM targeting peptide selected by in vivo phage display]” was tested, and the “binding to EF43.fgf4 cells in vitro” value (EF43.fgf4 cells) was “bound to EF43.fgf4 cells”.

`C=C1/C(=C\C=C2/CCC[C@]3(C)[C@@H]([C@H](C)CCCC(C)(C)O)CC[C@@H]23)C[C@@H](O)C[C@@H]1O` [1,25-(OH)2D3, reference compound] was tested, and the “effect of co-treatment on the CSSTRESAC-induced cytokine response” value ([1]; TAM co-treated with CSSTRESAC peptide and 1,25-(OH)2D3) was “abrogated”.

With “CRGFVVGRC (TAM Targeting Peptide) [TAM targeting peptide selected by in vivo phage display]” the “binding to EF43.fgf4 cells in vitro” value (EF43.fgf4 cells) was “bound to EF43.fgf4 cells”.

`C=C1CC[C@H](O)C/C1=C/C=C1\CCC[C@]2(C)[C@@H]([C@H](C)CCCC(C)C)CC[C@@H]12` [vitamin D3, cholecalciferol] was tested, and the “effect on binding of CSSTRESAC-phage to immobilized DBP” value (DBP) was “not”.

For “CRYSAARSC (TAM Targeting Peptide) [TAM targeting peptide selected by in vivo phage display]”, the “binding to EF43.fgf4 cells in vitro” value (EF43.fgf4 cells) was “bound to EF43.fgf4 cells”.

B1: synthetic CSSTRESAC peptide (SEQ ID NO:1) (peptide)
peptide: CSSTRESAC
modifications: not fully specified; cysteine pairing not given here
B1 was tested, and the “gene expression of iNOS2 in cultured CD11b+F4/80+ TAM (real-time quantitative PCR)” value [3] was ~20 fold, the “gene expression of the cytokine IL-23 in cultured CD11b+F4/80+ TAM (real-time quantitative PCR)” value [3] was ~10 fold and the “gene expression of the pro-inflammatory cytokines IL-1β, TNF-α, and IL-6 in cultured CD11b+F4/80+ TAM (real-time quantitative PCR)” value [3] was ~40 fold.

B2: CSSTRESAC-phage (peptide)
peptide: CSSTRESAC
modifications: cysteine pairing not given here; also: displayed on bacteriophage particle
notes: The control was insertless phage; not shown: The phage coat protein and the rest of the phage particle that carry the CX7C insert
B2: binds [4].
